# Paper PMC11583597, “Brain uptake pharmacokinetics of albiglutide, dulaglutide, tirzepatide, and DA5-CH in the search for new treatments of Alzheimer’s and Parkinson’s diseases” (Tissue Barriers, 2023)
# What was measured:
# [1] = parameters: species or system male CD-1 mice; conditions: mouse, in vivo, iv
# Method: Anesthetized mice were co-injected iv with 3 × 10^5 cpm-1×10^6 cpm ^125I/^14C-IRA and 5 × 10^5 cpm of ^99mTc-Alb in 0.2 ml BSA-LR with or without 1 μg of the non-radioactive IRA. Fifteen minutes after iv injection, blood was collected from the right carotid artery, and the whole brain was removed and weighed. Samples were counted for radioactivity. Results were expressed as delta B/S ratios in units of μl/g.
# [2] = Long-term (6 h) measurement of brain uptake; assay type: in vivo, male CD-1 mice; conditions: mouse, in vivo, iv
# Method: Substances that are enzymatically stable in blood and have slow clearance from the circulation can slowly enter the brain using the extracellular pathways.[63],[64] […] Albumin enters the brain by extracellular pathways,[70] and so we used albumin in two ways: we used ^99mTc-Alb circulating for 10 min to measure vascular space and ^99mTc-Alb circulating for 6 h to measure brain uptake by extracellular pathways. This is similar to the time-differential methodology developed by Poduslo and Curran to measure a substance’s vascular space and its uptake rate.[71] Following anesthetization, the jugular vein and right carotid artery were exposed. Mice were given an iv injection of 0.1% BSA-LR containing 1 × 10^6 cpm of ^125I-IRA or 5 × 10^5 cpm of ^99mTc-Alb, which circulated for 6 h. Mice receiving only the ^125I-IRA were given an injection of 5 × 10^5 cpm of ^99mTc-Alb 10 min prior to the end of the 6 h circulation time to act as a vascular marker. A separate set of mice received an iv injection of both 1 × 10^6 cpm of ^125I-IRA and 5 × 10^5 cpm of ^99mTc-Alb that circulated for 10 min. Following the 10 min or 6 h circulation time points, blood and brain were collected as described above. Thus, we had B/S ratios for ^99mTc-Alb measuring vascular space (10 min circulation time) and B/S ratios for ^99mTc-Alb measuring vascular space plus uptake by the extracellular pathways (6 h circulation time) which could be compared to the B/S ratios for the ^125I-IRAs after 10 min and 6 h of circulation.
# Immediately after counting the radioactivity, the blood and brains from the 10 min and 6 h time points were processed as described in Section 2.5 for in vivo stability. For further comparison, data from the 1 h time point were taken from the original pharmacokinetic uptake study. The ^125I-IRA brain % acid precipitation (%AP) was divided by the ^125I-IRA serum %AP at each time point to calculate the %AP B/S ratio. This value was multiplied by the B/S ratio for each ^125I-IRA to correct for degradation over the 10 min, 1 h, or 6 h time periods. […]
smiles,measurement,setting,value
CC[C@H](C)[C@H](NC(=O)[C@H](CC(C)C)NC(=O)[C@H](Cc1c[nH]c2ccccc12)NC(=O)[C@H](CCC(N)=O)NC(=O)[C@@H](NC(=O)[C@H](Cc1ccccc1)NC(=O)[C@H](C)NC(=O)[C@H](CCCCNC(=O)COCCOCCNC(=O)COCCOCCNC(=O)CC[C@H](NC(=O)CCCCCCCCCCCCCCCCCCC(=O)O)C(=O)O)NC(=O)[C@H](CCC(N)=O)NC(=O)[C@H](C)NC(=O)[C@@H](NC(=O)[C@H](CCCCN)NC(=O)[C@H](CC(=O)O)NC(=O)[C@H](CC(C)C)NC(=O)C(C)(C)NC(=O)[C@@H](NC(=O)[C@H](CO)NC(=O)[C@H](Cc1ccc(O)cc1)NC(=O)[C@H](CC(=O)O)NC(=O)[C@H](CO)NC(=O)[C@@H](NC(=O)[C@H](Cc1ccccc1)NC(=O)[C@@H](NC(=O)CNC(=O)[C@H](CCC(=O)O)NC(=O)C(C)(C)NC(=O)[C@@H](N)Cc1ccc(O)cc1)[C@@H](C)O)[C@@H](C)O)[C@@H](C)CC)[C@@H](C)CC)C(C)C)C(=O)N[C@@H](C)C(=O)NCC(=O)NCC(=O)N1CCC[C@H]1C(=O)N[C@@H](CO)C(=O)N[C@@H](CO)C(=O)NCC(=O)N[C@@H](C)C(=O)N1CCC[C@H]1C(=O)N1CCC[C@H]1C(=O)N1CCC[C@H]1C(=O)N[C@@H](CO)C(N)=O [Tirzepatide],"Whole Brain delta brain/serum ratio, Without unlabeled IRA",[1],-0.16 ± 0.13 µL/g
same,Amount present in brain at 6 h (AP corrected delta %Inj/g),[2],0.005 %Inj/g
